Active and inactive are the calls of the source.
Key:
Caov-4 = assay: Growth inhibition of human Caov4 cells incubated for 48 hrs by MTT assay; format: functional, cell-based
Homo sapiens = species: Homo sapiens; assay: Growth inhibition of human ES2 cells incubated for 48 hrs by MTT assay; format: functional
Caov-3 cell line = assay: Growth inhibition of human Caov3 cells incubated for 48 hrs by MTT assay; format: functional, cell-based

Measured: growth inhibition (GI)

FC(F)(F)c1ccccc1-n1cc(COCc2ccccc2S)nn1
active: all assays above
